Data: patent US9149468B2, “Multicomponent crystals made ([2-amino-6-(4-fluoro-benzylamino)-pyridin-3-yl]-carbamic acid ethyl ester and 2-[2-[(2,6-dichlorphenyl)-amino]-phenyl]-acetic acid” (TEVA GmbH, priority 2010, dated 2015)
Where a name gives a salt, the structure may show the parent alone. Read-outs that look alike come from different tables or passages of the source.

Legend:
[1] = mice, 15 mg per kg flupirtine maleate combined with various dosages of NSAIDS; cited from earlier work
[2] = rat, 35 mg per kg flupirtine maleate combined with various dosages of NSAIDS; cited from earlier work
[3] = pain and inflammation model (methods of DE 36 65 538); type: in vivo; conditions: animal model
From the text: The methods disclosed therein are herewith incorporated as a reference, […]

## CCOC(=O)Nc1ccc(NCc2ccc(F)cc2)nc1N [flupirtine maleate]
[1]
  effect on antinociceptive activity of paracetamol, acetyl salicylic acid, and diclofenac: enhances
[2]
  effect on antinociceptive activity of paracetamol, acetyl salicylic acid, and diclofenac: enhances

## CCOC(=O)Nc1ccc(NCc2ccc(F)cc2)nc1N.O=C(O)Cc1ccccc1Nc1c(Cl)cccc1Cl [multicomponent crystal according to the invention of ([2-amino-6-(4-fluoro-benzylamino)-pyridin-3-yl]carbamic acid ethyl ester and 2-[2-[(2,6-dichlorophenyl)-amino]-phenyl]acetic acid]
[3]
  effects in pain and inflammation model compared with the test results of DE 36 65 538: qualitatively comparable
